Data reported in patent US20240158390A1, “OTHER HETEROAROMATIC COMPOUNDS HAVING ACTIVITY AGAINST RSV” (Janssen Sciences Ireland Unlimited Company, priority 2019, published 2024).

Legend:
rgRSV224 virus = test: Antiviral activity: rgRSV224 (GFP) replication in HeLa cells; assay type: cell-based; settings: human respiratory syncytial virus, 72 h, read-out: RSV HELA EC50 (μM)
Experimental: (§1) Black 384-well clear-bottom microtiter plates (Corning, Amsterdam, The Netherlands) were filled via acoustic drop ejection using the echo liquid handler (Labcyte, Sunnyvale, California). 200 nL of compound stock solutions (100% DMSO) were transferred to the assay plates. 9 serial 4-fold dilutions of compound were made, creating per quadrant the same compound concentration. The assay was initiated by adding 10 μL of culture medium to each well (RPMI medium without phenol red, 10% FBS-heat inactivated, 0.04% gentamycin (50 mg/mL). All addition steps are done by using a multidrop dispenser (Thermo Scientific, Erembodegem, Belgium). Next, rgRSV224 virus (MOI=1) diluted in culture medium was added to the plates. rgRSV224 virus is an engineered virus that includes an additional GFP gene (Hallak LK, Spillmann D, Collins PL, Peeples ME. Glycosaminoglycan sulfation requirements for respiratory syncytial virus infection; Journal of virology (2000), 74(22), 10508-13) and was in-licensed from the NIH (Bethesda, MD, USA). Finally, 20 μL of a HeLa cell suspension (3,000 cells/well) were plated. Medium, virus- and mock-infected controls were included in each test. The wells contain 0.05% DMSO per volume. Cells were incubated at 37° C. in a 5% CO2 atmosphere. Three days post-virus exposure, viral replication was quantified by measuring GFP expression in the cells by an in house developed MSM laser microscope (Tibotec, Beerse, Belgium). The EC50 was defined as the 50% inhibitory concentration for GFP expression. In parallel, compounds were incubated for three days in a set of white 384-well microtiter plates (Corning) and the cytotoxicity of compounds in HeLa cells was determined by measuring the ATP content of the cells using the ATPlite kit (Perkin Elmer, Zaventem, Belgium) according to the manufacturer's instructions. The CC50 was defined as the 50% concentration for cytotoxicity.

in vitro = assay type: cell-based; settings: human
Experimental: as §1

SMILES | EC50 (rgRSV224 virus) | CC50 at 3 days (in vitro)
C[C@@H]1c2ccccc2CCN1C(=O)c1cc(C2CC2)c2cc(-c3ccc([C@H]4C[C@@H]4C(=O)O)cc3F)n(C)c2c1 [Compound 9, (1 S,2S)-2-(4-(4-cyclopropyl-1-methyl-6-((R)-1-methyl-1,2,3,4-tetrahydroisoquinoline-2-carbonyl)-1H-indol-2-yl)-3-fluorophenyl)cyclopropane-1-carboxylic acid] | 2.31 µM | 31.4 µM
CCc1cc(C(=O)N2CCc3ccccc3[C@H]2C)nc2cc(-c3ccc(NC(=O)N4CC[C@@H](O)C4)cc3F)oc12 [Compound 6, (R)-N-(4-(7-ethyl-5-((R)-1-methyl-1,2,3,4-tetrahydroisoquinoline-2-carbonyl)furo[3,2-b]pyridin-2-yl)-3-fluorophenyl)-3-hydroxypyrrolidine-1-carboxamide] | 0.07 µM | > 100 µM
C[C@@H]1c2ccccc2CCN1C(=O)c1cc(C2CC2)c2nc(-c3ccc(N4CC[C@H](C(=O)O)C4)cc3F)oc2c1 [Compound 21, (3S)-1-(4-{4-Cyclopropyl-6-[(1R)-1-methyl-1,2,3,4-tetrahydroisoquinoline-2-carbonyl]-1,3-benzoxazol-2-yl}-3-fluorophenyl)pyrrolidine-3-carboxylic acid] | 0.01 µM | 51.5 µM
C[C@@H]1c2ccccc2CCN1C(=O)c1cc(C2CC2)c2cc(-c3ccc(N4CC[C@@H](C(=O)O)C4)cc3F)n(C)c2c1 [Compound 10, (R)-1-(4-(4-cyclopropyl-1-methyl-6-((R)-1-methyl-1,2,3,4-tetrahydroisoquinoline-2-carbonyl)-1H-indol-2-yl)-3-fluorophenyl)pyrrolidine-3-carboxylic acid] | 2.64 µM | 21.1 µM
C[C@@H]1c2ccccc2CCN1C(=O)c1cc(C2CC2)c2sc(-c3ccc(N4C[C@H](O)[C@@H](O)C4)cc3F)nc2n1 [Compound 5, (7-cyclopropyl-2-(4-((3 S,4S)-3,4-dihydroxypyrrolidin-1-yl)-2-fluorophenyl)thiazolo[4,5-b]pyridin-5-yl)((R)-1-methyl-3,4-dihydroisoquinolin-2(1H)-yl)methanone] | 0.73 µM | 33.3 µM
